According to ChEMBL document CHEMBL1201862, “PubChem BioAssay data set” (2004):
Active and inactive are the calls of the source.

What was measured:
[1] = A2780 cell killing – plate reader, dry powder samples, cytotoxicity control, dose response (AID 743046); type: functional, cell-based
[2] = biological target: T1, Microphthalmia-associated transcription factor (Homo sapiens, UniProt O75030); experiment: reducers of TRPM1 reporter luminescence, concentration series – cell-based, SK-MEL-5, cherry-picked, set 3, MITF inhibitor project, dose response (AID 493073); type: functional;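 also: SK-MEL-5 melanoma cells with luciferase driven by the MITF target TRPM1 promoter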
T1 sequence (O75030 whole entry): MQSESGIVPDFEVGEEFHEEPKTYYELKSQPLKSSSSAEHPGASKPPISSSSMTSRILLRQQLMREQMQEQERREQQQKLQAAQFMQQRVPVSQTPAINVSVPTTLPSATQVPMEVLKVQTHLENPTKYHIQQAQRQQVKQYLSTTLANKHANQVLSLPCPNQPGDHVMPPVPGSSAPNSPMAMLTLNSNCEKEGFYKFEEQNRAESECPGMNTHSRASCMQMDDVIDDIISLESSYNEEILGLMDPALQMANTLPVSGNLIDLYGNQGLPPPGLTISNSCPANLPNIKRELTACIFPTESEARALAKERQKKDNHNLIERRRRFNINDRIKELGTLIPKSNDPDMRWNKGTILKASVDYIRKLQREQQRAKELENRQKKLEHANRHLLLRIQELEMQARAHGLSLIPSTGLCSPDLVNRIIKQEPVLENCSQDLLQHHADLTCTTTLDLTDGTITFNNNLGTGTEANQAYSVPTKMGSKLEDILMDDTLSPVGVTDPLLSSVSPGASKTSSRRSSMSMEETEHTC

[3] = loss of viability in HepG2 cells – cell-based, CellTiter-Glo, cherry-picked, cytotoxicity control for Shn3 inhibitor project, dose response (AID 624134); type: functional
CHO = CHO cell viability loss, potency – luminescence, cytotoxicity control for TLR9-MyD88 binding inhibitor project, dose response (AID 588339); type: functional, cell-based, hamster; conditions: Cricetulus griseus;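 also: CHO cells stably coexpressing TLR9 and MyD88 fusions from primary screen; compound exposure lasted 48 hours before viability readout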
[4] = COV434 cell viability loss – plate reader, dry powder, SA7, cytotoxicity control for PAX8 inhibitor project, dose response (AID 743145); type: functional, cell-based
[5] = non-specific 3'UTR reporter inhibition in Clone20-Shn3RL – cell-based, Renilla luciferase, cherry-picked, counter-screen for Shn3 inhibitor project, dose response (AID 624133); type: functional
Paired box protein Pax-8 = Paired box protein Pax-8 (Homo sapiens, UniProt Q06710); experiment: PAX8 transcriptional activity inhibition in RMG-I – RMG-I cells, luciferase, cherry-pick, dose response (AID 687027); type: functional, cell-based;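 also: luciferase reporter driven by Pax8 target thyroperoxidase promoter measured by SteadyGlo luminescence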
[6] = IGROV1 cell killing – plate reader, dry powder samples, PAX8 inhibitor project, dose response (AID 743043); type: functional, cell-based; conditions: IGROV-1
[7] = OV-90 cell viability loss – plate reader, dry powder, SA8, PAX8 inhibitor project, dose response (AID 743149); type: functional, cell-based
[8] = general cell-killing toxicity readout – plate reader, dry powder samples, cytotoxicity control for PAX8 inhibitor project, dose response (AID 743021); type: functional, cell-based
Beta Lactamase = Beta Lactamase (Pseudomonas aeruginosa, UniProt Q932Y6); experiment: BLA reporter interference, concentration series – BLA reporter cells, FRET fluorescence, artefact control for TLR9-MyD88 binding inhibitor project, dose response (AID 588341); type: cell-based;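 also: cell based assay in CHO-K1 cells stably expressing beta-lactamase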
Bcl-2-related protein A1 = biological target: T2, Bcl-2-related protein A1 (Mus musculus, UniProt Q07440); type: functional;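 also: confirmatory dose–response counterscreen on Bfl-1, used to check hits from a UBC13 polyubiquitin inhibitor campaign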
T2 sequence (Q07440 whole entry): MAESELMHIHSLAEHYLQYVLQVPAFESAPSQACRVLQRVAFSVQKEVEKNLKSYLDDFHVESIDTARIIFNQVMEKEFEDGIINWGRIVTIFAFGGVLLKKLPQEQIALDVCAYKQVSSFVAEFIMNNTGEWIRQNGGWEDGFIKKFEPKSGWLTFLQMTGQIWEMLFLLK

Protein RecA = biological target: T3, Protein RecA (Mycobacterium tuberculosis, UniProt P9WHJ3); experiment: Fluorescence Cell-Free Homogeneous Dose Retest to Identify Inhibitors of RecA-Intein Splicing Activity. [Related pubchem assays (depositor defined):AID2097, AID2223, AID489010, AID492950]; type: functional
T3 sequence (P9WHJ3 whole entry): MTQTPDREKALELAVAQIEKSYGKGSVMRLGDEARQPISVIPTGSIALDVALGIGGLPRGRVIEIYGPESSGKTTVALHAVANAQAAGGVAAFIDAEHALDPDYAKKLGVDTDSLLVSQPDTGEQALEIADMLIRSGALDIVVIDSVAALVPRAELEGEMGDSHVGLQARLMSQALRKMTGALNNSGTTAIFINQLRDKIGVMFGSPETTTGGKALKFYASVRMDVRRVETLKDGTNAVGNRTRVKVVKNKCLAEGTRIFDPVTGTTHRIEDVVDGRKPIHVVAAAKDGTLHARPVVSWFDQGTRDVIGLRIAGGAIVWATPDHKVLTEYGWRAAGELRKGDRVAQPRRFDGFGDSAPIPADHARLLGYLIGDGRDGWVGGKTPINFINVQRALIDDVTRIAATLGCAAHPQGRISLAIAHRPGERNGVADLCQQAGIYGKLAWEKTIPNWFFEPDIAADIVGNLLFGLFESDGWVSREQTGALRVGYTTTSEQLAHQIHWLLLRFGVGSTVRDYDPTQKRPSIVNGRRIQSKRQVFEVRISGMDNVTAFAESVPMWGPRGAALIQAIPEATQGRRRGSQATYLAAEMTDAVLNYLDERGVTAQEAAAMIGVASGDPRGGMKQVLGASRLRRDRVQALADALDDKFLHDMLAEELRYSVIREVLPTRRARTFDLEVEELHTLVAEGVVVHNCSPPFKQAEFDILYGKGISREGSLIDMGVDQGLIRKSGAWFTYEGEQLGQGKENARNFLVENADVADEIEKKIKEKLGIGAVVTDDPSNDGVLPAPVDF

[9] = COV362 cell viability loss – plate reader, dry powder, SA12, cytotoxicity control for PAX8 inhibitor project, dose response (AID 743144); type: functional, cell-based
[10] = toxicity toward immortalized ovarian surface epithelium – cell-based, plate reader, dry powder samples, cytotoxicity control for PAX8 inhibitor project, dose response (AID 743045); type: functional
[11] = PAX8-dependent cell viability loss – plate reader, dry powder, dose response (AID 743049); type: functional, cell-based
[12] = biological target: T4, Ubiquitin-conjugating enzyme E2 N (Homo sapiens, UniProt P61088); type: functional
T4 sequence (P61088 whole entry): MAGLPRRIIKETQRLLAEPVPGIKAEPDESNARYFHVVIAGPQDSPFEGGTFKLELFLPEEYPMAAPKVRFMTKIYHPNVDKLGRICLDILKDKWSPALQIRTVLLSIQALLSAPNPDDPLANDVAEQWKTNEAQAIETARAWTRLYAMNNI

[13] = biological target: T4, Ubiquitin-conjugating enzyme E2 N; type: functional; remark: listed apart in the source
[14] = OVCAR4 cell viability loss – plate reader, dry powder, SA11, cytotoxicity control for PAX8 inhibitor project, dose response (AID 743150); type: functional, cell-based; conditions: OVCAR-4
[15] = biological target: ATP-binding cassette sub-family B member 6 (Homo sapiens, UniProt Q9NP58); experiment: ABCB6 transporter inhibitors, porphyrin accumulation, dose response, flow cytometry, K562-ABCB6 cells, cherry pick 02 (AID 624487); type: functional; conditions: read-out: EC50_MICROM
[16] = OVCAR-3 cell viability loss – plate reader, dry powder samples, PAX8 inhibitor project, dose response (AID 743044); type: functional, cell-based
[17] = reduction of Shn3 3'UTR-driven luciferase in osteoblasts – cell-based, Clone20 osteoblasts, firefly luciferase, cherry-picked, dose response (AID 624132); type: functional;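 also: firefly luciferase luminescence from reporter carrying the Shn3 3'UTR in osteoblasts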
[18] = biological target: T5, Replicative DNA helicase DnaB (Mycobacterium tuberculosis, UniProt P9WMR3); experiment: DnaB intein splicing inhibitors, dose response, biochemical, cell-free fluorescence (AID 449749); type: functional
T5 sequence (P9WMR3 whole entry): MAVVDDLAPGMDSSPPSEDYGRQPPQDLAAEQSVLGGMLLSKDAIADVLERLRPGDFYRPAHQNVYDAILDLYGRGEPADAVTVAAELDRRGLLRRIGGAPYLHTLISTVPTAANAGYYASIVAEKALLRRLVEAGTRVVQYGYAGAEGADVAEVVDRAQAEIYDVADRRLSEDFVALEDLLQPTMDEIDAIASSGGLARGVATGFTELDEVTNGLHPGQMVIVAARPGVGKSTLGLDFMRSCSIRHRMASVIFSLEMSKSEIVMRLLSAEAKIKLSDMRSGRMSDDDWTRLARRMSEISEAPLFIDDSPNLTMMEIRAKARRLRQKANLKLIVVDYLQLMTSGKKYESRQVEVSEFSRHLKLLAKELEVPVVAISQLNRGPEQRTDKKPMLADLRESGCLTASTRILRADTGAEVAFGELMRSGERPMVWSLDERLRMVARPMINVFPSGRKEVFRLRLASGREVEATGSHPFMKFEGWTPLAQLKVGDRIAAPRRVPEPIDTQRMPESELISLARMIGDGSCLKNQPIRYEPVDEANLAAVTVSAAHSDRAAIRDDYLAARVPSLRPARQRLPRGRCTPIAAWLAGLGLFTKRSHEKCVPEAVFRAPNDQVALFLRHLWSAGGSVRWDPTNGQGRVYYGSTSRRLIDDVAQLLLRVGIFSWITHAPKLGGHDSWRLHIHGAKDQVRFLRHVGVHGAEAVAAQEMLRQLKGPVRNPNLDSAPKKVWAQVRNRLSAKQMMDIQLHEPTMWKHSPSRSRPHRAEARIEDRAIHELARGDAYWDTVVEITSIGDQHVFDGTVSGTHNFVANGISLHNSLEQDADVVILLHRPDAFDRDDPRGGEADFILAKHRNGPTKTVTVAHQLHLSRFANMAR

[19] = biological target: Luciferin 4-monooxygenase (Photinus pyralis, UniProt P08659); experiment: inhibition of purified Photinus pyralis luciferase – biochemical, dry powder samples, plate reader, dose response (AID 588451)
[20] = blockers of bursicon-stimulated LGR2 cAMP reporter – cell-based, HEK293, CRE-luciferase reporter, cherry pick, set 2, dose response (AID 743343); type: functional;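 also: transfected cells were stimulated with diluted bursicon conditioned medium after compound addition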
H4 [21] = experiment: Inhibitors of Prion Protein 5' UTR mRNA Measured in Cell-Based System Using Plate Reader - 2078-01_Inhibitor_Dose_DryPowder_Activity. [Related pubchem assays (depositor defined):AID488894]; type: functional; conditions: Homo sapiens
Jurkat = experiment: blockers of NF-kB activation in T cells – Jurkat, luciferase reporter, luminescence, B- and T-cell, dose response (AID 489004); type: functional, cell-based; conditions: Homo sapiens;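 also: NF-kB luciferase reporter Jurkat cells stimulated with PMA plus ionomycin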
[22] = HEK-293T viability loss, compound-treated – cell-based, uHTS hits, cytotoxicity control for B/T-cell NF-kB inhibitor project, dose response (AID 489019); type: functional;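 also: IC50 reflects cytotoxicity as loss of cell viability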
H4 [23] = experiment: Amyloid Precursor 5' UTR neuroblastoma cell reporter line Measured in Cell-Based System Using Plate Reader - 2078-04_Inhibitor_Dose_DryPowder_Activity. [Related pubchem assays (depositor defined):AID488894]; type: functional; conditions: Homo sapiens
H4 [24] = experiment: inhibitors of control reporter signal in H4 cells – cell-based, plate reader, dry powder samples, counter-screen for prion reporter project, dose response (AID 540255); type: functional; conditions: Homo sapiens
[25] = blockade of melanocortin 4 receptor signaling – cell-based, plate reader, cherry pick, counter-screen for LGR2 antagonist project, dose response (AID 743444); type: functional;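 also: transfected HEK 293 cells stimulated with alpha-MSH peptide; potency of inhibitors of the alpha-MSH evoked signal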
[26] = biological target: T6, Cyclin-dependent kinase 5/CDK5 activator 1 (Homo sapiens, UniProt Q00535); experiment: human CDK5 activity blockade – biochemical, microfluidic mobility shift, dry powder, selectivity assay for GSK-3 alpha inhibitor project, dose response (AID 588430)
[27] = biological target: Glycogen synthase kinase-3 beta (Homo sapiens, UniProt P49841); experiment: Inhibition of Human GSK-3 beta Activity Measured in Biochemical System Using Microfluidics - 2063-05_Inhibitor_Dose_DryPowder_Activity_Set2. [Related pubchem assays (depositor defined):AID2709]
[28] = biological target: Glycogen synthase kinase-3 alpha (Homo sapiens, UniProt P49840); experiment: Inhibition of Human GSK-3 alpha Activity Measured in Biochemical System Using Microfluidics - 2063-06_Inhibitor_Dose_DryPowder_Activity_Set2. [Related pubchem assays (depositor defined):AID2709]
[29] = biological target: T6, Cyclin-dependent kinase 5/CDK5 activator 1; experiment: blockade of human CDK5 activity – biochemical, cherry-picked samples, set 2, dose response (AID 504545)
Candida albicans [30] = experiment: resistant Candida growth with fluconazole co-treatment – CaCi-8 strain, Alamar Blue, dry powder, set 3, dose response (AID 488905); type: functional, organism-based
Candida albicans [31] = experiment: Candida growth inhibition combined with fluconazole – CaCi-2 strain, Alamar Blue, dry powder, set 3, dose response (AID 488907); type: functional, organism-based

T6 sequence (Q00535 whole entry): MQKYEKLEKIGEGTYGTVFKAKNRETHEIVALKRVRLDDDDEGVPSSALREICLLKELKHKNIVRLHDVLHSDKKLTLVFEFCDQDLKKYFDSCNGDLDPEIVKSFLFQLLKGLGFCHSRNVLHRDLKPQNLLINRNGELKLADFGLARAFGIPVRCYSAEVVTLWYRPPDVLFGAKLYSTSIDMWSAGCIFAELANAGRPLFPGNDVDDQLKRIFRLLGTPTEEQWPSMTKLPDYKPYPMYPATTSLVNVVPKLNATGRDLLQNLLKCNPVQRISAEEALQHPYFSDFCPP
T6 sequence (Q15078 whole entry, further chain): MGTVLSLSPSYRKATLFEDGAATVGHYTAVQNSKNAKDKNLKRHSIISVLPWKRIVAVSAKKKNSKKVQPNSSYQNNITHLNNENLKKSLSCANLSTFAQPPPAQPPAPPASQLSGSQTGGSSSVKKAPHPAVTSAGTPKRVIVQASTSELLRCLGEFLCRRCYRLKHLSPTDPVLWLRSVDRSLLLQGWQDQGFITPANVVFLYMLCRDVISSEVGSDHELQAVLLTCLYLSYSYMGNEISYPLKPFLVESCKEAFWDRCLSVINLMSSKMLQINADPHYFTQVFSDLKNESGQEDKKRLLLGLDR
Sequence of ATP-binding cassette sub-family B member 6 (Q9NP58 whole entry): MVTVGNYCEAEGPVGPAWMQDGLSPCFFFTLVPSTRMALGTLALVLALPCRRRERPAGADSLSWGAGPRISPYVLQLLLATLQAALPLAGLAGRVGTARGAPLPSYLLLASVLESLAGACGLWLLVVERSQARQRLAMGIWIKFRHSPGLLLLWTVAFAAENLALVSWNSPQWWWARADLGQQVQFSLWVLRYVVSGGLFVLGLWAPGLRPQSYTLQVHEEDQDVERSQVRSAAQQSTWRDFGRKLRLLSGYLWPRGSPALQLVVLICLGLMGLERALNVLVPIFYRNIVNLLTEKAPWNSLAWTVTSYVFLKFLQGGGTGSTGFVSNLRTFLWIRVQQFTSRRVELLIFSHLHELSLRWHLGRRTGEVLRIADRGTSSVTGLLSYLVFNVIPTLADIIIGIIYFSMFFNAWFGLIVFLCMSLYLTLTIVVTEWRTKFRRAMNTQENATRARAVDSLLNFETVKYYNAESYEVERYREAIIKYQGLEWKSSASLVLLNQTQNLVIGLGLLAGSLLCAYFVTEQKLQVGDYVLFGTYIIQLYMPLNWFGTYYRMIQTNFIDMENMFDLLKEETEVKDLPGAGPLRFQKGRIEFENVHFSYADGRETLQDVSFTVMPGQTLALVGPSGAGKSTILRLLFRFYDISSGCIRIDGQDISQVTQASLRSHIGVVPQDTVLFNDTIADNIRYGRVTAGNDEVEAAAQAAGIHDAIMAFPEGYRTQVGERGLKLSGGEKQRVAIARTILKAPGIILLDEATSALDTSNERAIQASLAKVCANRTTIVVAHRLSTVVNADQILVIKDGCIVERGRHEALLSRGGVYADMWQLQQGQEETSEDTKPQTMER
Sequence of Glycogen synthase kinase-3 alpha (P49840 whole entry): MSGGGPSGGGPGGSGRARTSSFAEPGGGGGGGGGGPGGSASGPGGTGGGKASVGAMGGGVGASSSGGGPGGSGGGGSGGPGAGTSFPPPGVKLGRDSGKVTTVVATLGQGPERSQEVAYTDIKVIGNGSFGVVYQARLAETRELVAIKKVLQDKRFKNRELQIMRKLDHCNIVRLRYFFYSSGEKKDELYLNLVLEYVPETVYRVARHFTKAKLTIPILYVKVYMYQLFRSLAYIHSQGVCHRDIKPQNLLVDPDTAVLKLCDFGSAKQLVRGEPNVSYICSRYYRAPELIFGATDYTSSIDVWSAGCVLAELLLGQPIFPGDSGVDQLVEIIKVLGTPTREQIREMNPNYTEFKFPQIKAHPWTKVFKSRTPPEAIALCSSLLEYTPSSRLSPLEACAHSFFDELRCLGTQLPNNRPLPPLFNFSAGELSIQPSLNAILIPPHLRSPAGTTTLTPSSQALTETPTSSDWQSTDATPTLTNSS
Sequence of Glycogen synthase kinase-3 beta (P49841 whole entry): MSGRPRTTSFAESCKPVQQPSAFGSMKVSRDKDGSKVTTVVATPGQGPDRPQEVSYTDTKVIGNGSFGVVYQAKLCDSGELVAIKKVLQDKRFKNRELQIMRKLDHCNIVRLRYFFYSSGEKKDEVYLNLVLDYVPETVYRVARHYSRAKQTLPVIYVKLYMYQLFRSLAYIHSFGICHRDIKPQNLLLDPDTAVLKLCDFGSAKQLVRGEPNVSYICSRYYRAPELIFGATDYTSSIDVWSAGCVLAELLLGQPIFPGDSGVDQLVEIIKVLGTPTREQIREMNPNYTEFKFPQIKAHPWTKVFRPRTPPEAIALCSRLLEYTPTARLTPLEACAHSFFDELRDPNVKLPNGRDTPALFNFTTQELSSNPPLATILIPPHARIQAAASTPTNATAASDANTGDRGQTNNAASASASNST
Sequence of Beta Lactamase (Q932Y6 whole entry): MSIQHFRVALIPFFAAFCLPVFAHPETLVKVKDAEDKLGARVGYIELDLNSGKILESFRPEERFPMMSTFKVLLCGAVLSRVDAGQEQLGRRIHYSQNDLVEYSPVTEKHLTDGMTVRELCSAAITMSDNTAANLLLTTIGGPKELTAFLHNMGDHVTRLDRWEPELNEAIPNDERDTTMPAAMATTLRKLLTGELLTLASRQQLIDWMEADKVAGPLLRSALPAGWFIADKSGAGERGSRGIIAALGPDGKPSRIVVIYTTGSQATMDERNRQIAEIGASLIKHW
Sequence of Paired box protein Pax-8 (Q06710 whole entry): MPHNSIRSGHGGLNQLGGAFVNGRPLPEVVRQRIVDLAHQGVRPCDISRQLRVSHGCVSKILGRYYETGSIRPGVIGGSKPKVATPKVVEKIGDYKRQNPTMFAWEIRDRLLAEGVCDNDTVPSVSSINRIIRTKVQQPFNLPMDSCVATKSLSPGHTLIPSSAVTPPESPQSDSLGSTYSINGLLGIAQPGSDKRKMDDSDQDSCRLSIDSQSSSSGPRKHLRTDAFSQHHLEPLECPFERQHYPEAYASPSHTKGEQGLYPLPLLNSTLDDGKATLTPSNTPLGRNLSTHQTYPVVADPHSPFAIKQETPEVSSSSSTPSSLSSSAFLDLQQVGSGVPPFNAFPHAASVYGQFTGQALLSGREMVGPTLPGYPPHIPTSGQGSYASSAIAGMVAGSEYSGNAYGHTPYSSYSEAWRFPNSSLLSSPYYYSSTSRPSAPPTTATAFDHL
Sequence of Luciferin 4-monooxygenase (P08659 whole entry): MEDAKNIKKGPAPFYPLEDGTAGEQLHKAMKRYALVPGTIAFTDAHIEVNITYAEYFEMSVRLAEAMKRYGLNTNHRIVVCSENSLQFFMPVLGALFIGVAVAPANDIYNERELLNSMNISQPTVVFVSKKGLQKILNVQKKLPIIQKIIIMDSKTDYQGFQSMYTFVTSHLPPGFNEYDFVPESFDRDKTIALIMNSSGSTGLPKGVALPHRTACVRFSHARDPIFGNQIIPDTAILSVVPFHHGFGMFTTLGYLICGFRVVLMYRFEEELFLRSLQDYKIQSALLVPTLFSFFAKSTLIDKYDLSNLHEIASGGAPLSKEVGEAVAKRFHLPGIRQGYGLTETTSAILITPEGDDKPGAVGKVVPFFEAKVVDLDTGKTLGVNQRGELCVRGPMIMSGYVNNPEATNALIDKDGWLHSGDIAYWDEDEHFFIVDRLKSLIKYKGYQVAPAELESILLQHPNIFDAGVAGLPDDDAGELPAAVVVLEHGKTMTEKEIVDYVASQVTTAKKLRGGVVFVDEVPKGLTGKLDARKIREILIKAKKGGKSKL

## CC(=O)Nc1ccc(NC(=O)c2nc(S(=O)(=O)Cc3ccccc3)ncc2Cl)cc1
[1]
  AC50: 10.2 µM (active)
[2]
  AC50: 12.8 µM (active)
[3]
  AC50: 28.6 µM (active)
CHO
  IC50: 6.31 µM (active)
[4]
  AC50: 12.7 µM (active)
[5]
  AC50: 6.33 µM (active)
Paired box protein Pax-8
  AC50: 9.86 µM (active)
[6]
  AC50: 15.8 µM (active)
[7]
  AC50: 30 µM (active)
[8]
  AC50: 20.7 µM (active)
Beta Lactamase
  IC50: 7.61 µM (active)
Bcl-2-related protein A1
  IC50: > 20 µM (inactive)
Protein RecA
  EC50: 9.36 µM (active)
[9]
  AC50: 23.1 µM (active)
[10]
  AC50: 18.2 µM (active)
[11]
  AC50: 17.6 µM (active)
[12]
  IC50: > 20 µM (inactive)
[13]
  IC50: 10.9 µM (active)
[14]
  AC50: 25.9 µM (active)
[15]
  EC50: 8.72 µM (active)
[16]
  AC50: 15.3 µM (active)
[17]
  AC50: 0.773 µM (active)
[18]
  AC50: 11.2 µM (active)

## Cc1cc(C(=O)COC(=O)c2ccccc2O)c(C)n1CC1CCCO1 (configuration not stated)
[19]
  AC50: 1.05 µM (active)
[20]
  AC50: 0.178 µM (active)
H4 [21]
  AC50: 0.017 µM (active)
Jurkat
  IC50: 0.25 µM (active)
[22]
  IC50: > 80 µM (inactive)
H4 [23]
  AC50: 0.00598 µM (active)
H4 [24]
  AC50: 0.273 µM (active)
[25]
  AC50: 0.178 µM (active)

## COc1ccc2nc3c(cc2c1)c(NC(=O)CC(C)C)nn3CC(C)C
[26]
  AC50: 1.4 µM (active)
[27]
  AC50: 0.228 µM (active)
[28]
  AC50: 1.48 µM (active)
[29]
  AC50: 32.7 µM (active)

## CCCCC(=O)N1CCN(c2ccccn2)CC1
Candida albicans [30]
  AC50: 0.283 µM (active)
Candida albicans [31]
  AC50: 0.73 µM (active)
